Legend:
[1] = tested on: Male Swiss Webster mice; assay: Hole board test (spontaneous motility, exploratory activity); format: in vivo; details: 14-day sub-chronic treatment SC 100 mg/kg BID; 5 minutes on board
Protocol: In the hole board test, the […] movements were recorded by two separate photocell systems, which recorded both the movements on the board (spontaneous motility) and how many times the mouse put its head into the holes on the surface (exploratory activity).
The mice were placed on the board one at a time and left free to explore both the surface and the holes for 5 minutes.

[2] = tested on: Male Swiss Webster mice; assay: Hot-plate test (thermal stimulus), licking latency; format: in vivo
Protocol: The first experiment was the hot-plate test.
Male Swiss Webster mice weighing between 22 and 30 g were used.
The test was carried out according to O'Callaghan and Holtzman in J. Pharmacol. Exp. Ther. 197: 533-537, 1976.
According to this test, a stainless steel container is to be placed in a bain-marie at a temperature of 52.5° C.
The mouse was removed from the hot plate immediately upon the first sign of painful stimulus. The maximum latency time registered on the hot plate was 45 seconds.
The values of analgesia were determined at 15 minute-intervals.

[3] = tested on: Male Swiss Webster mice; assay: Hyperalgesia induced by morphine withdrawal syndrome (hot plate)

## CC(=O)O[C@H](CC(=O)[O-])C[N+](C)(C)C [Acetyl L-carnitine, acetyl L-carnitine]
[1]
  EXPLORATORY ACTIVITY No. of movements: 52.3 ± 6.5
  LOCOMOTOR ACTIVITY No. of explorations: 24.0 ± 5.1
[2]; 3 mg/ml in drinking water, after 7 days treatment
  Hot plate Licking latency: 17.8 ± 2.3 s
[2]; 3 mg/ml in drinking water, after 14 days treatment
  Hot plate Licking latency: 18.8 ± 2.5 s
[2]; 3 mg/ml in drinking water, before treatment
  Hot plate Licking latency: 13.8 ± 0.8 s
[2]; 30 mg/kg SC, acute and 30 mg/kg BID SC for 7 days
  analgesic effect in hot-plate test: had no analgesic effect
[2]; 100 mg/kg BID SC for 7 days
  antinociceptive effect in hot-plate test: statistically significant antinociceptive effect
[2]; 100 mg/kg BID administered for 14 days
  antinociceptive effect in hot-plate test: the test failed to be statistically significant
[2]; 1-8 hours from one single administration of 100 mg/kg SC
  pain threshold in hot-plate test: did not affect the pain threshold
[2]; 7-day sub-chronic treatment SC 30 mg/kg BID, 15 min after treatment
  Hot plate Licking latency: 16.3 ± 2.1 s
[2]; 7-day sub-chronic treatment SC 30 mg/kg BID, 30 min after treatment
  Hot plate Licking latency: 17.3 ± 1.9 s
[2]; 7-day sub-chronic treatment SC 30 mg/kg BID, 45 min after treatment
  Hot plate Licking latency: 15.2 ± 1.5 s
[2]; 7-day sub-chronic treatment SC 30 mg/kg BID, before treatment
  Hot plate Licking latency: 15.8 ± 1.3 s
[2]; 7-day sub-chronic treatment SC 100 mg/kg BID, 15 min after treatment
  Hot plate Licking latency: 22.1 ± 1.8^ sec
[2]; 7-day sub-chronic treatment SC 100 mg/kg BID, 30 min after treatment
  Hot plate Licking latency: 22.5 ± 1.9^ sec
[2]; 7-day sub-chronic treatment SC 100 mg/kg BID, 45 min after treatment
  Hot plate Licking latency: 22.2 ± 1.7^ sec
[2]; 7-day sub-chronic treatment SC 100 mg/kg BID, before treatment
  Hot plate Licking latency: 21.8 ± 1.1^ sec
[2]; 14-day sub-chronic treatment SC 100 mg/kg BID, 15 min after treatment
  Hot plate Licking latency: 22.1 ± 2.7 s
[2]; 14-day sub-chronic treatment SC 100 mg/kg BID, 30 min after treatment
  Hot plate Licking latency: 22.5 ± 2.1 s
[2]; 14-day sub-chronic treatment SC 100 mg/kg BID, 45 min after treatment
  Hot plate Licking latency: 23.4 ± 2.9 s
[2]; 14-day sub-chronic treatment SC 100 mg/kg BID, before treatment
  Hot plate Licking latency: 22.4 ± 1.4 s
[2]; 7 days after the end of the 14-day-treatment 100 mg/kg BID, 15 min after treatment
  Hot plate Licking latency: 21.1 ± 1.9^ sec
[2]; 7 days after the end of the 14-day-treatment 100 mg/kg BID, 30 min after treatment
  Hot plate Licking latency: 18.5 ± 1.8 s
[2]; 7 days after the end of the 14-day-treatment 100 mg/kg BID, 45 min after treatment
  Hot plate Licking latency: 19.0 ± 2.3 s
[2]; 7 days after the end of the 14-day-treatment 100 mg/kg BID, before treatment
  Hot plate Licking latency: 19.2 ± 1.6^ sec
[2]; 7 days after the last 14 day-series of injections, 100 mg/kg BID SC
  antinociceptive action in hot-plate test: persisted even 7 days after the last 14 day-series of injections
[2]; Acute SC treatment 100 mg/kg, 15 min after treatment
  Hot plate Licking latency: 17.3 ± 1.7 s
[2]; Acute SC treatment 100 mg/kg, 30 min after treatment
  Hot plate Licking latency: 16.8 ± 1.2 s
[2]; Acute SC treatment 100 mg/kg, 45 min after treatment
  Hot plate Licking latency: 15.2 ± 1.7 s
[2]; Acute SC treatment 100 mg/kg, before treatment
  Hot plate Licking latency: 13.9 ± 0.7 s
[2]; SC acute treatment 30 mg/kg, 15 min after treatment
  Hot plate Licking latency: 15.8 ± 1.8 s
[2]; SC acute treatment 30 mg/kg, 30 min after treatment
  Hot plate Licking latency: 16.5 ± 2.0 s
[2]; SC acute treatment 30 mg/kg, 45 min after treatment
  Hot plate Licking latency: 15.0 ± 2.1 s
[2]; SC acute treatment 30 mg/kg, before treatment
  Hot plate Licking latency: 14.2 ± 0.9 s
[2]; acute SC administration 100 mg/kg
  protective effect in hot-plate test: did not exert any protective effect
[2]; single SC treatment 100 mg/kg, 1 h after treatment
  Hot plate Licking latency: 15.8 ± 2.2 s
[2]; single SC treatment 100 mg/kg, 2 h after treatment
  Hot plate Licking latency: 14.7 ± 1.5 s
[2]; single SC treatment 100 mg/kg, 3 h after treatment
  Hot plate Licking latency: 15.6 ± 1.9 s
[2]; single SC treatment 100 mg/kg, 4 h after treatment
  Hot plate Licking latency: 14.1 ± 2.0 s
[2]; single SC treatment 100 mg/kg, 6 h after treatment
  Hot plate Licking latency: 15.2 ± 1.9 s
[2]; single SC treatment 100 mg/kg, 8 h after treatment
  Hot plate Licking latency: 14.9 ± 1.6 s
[2]; single SC treatment 100 mg/kg, before treatment
  Hot plate Licking latency: 14.5 ± 0.9 s
[2]; solution 3 mg/ml in bottle for 7 and 14 days
  pain threshold in hot-plate test: no increase in the pain threshold was observed
[3]; one single administration, 5 hours and 30 minutes from replacement of morphine with water (FIG. 5bis)
  reversal of hyperalgesia induced by morphine withdrawal syndrome: not after one single administration
[3]; repeated treatment 100 mg/kg BID, IP or SC for 7 days (FIG. 5)
  reversal of hyperalgesia induced by morphine withdrawal syndrome: capable of reverting the hyperalgesia

Reference: patent US20090062388A1, “Use of acetyl L-carnitine for the preparation of a medication for the preventive therapy for pain” (Sigma-Tau Industrie Farmaceutiche Riunite S.p.A., priority 2001, published 2009)
